# Reference: patent US12365674B2, “Inhibitors of histone deacetylase useful for the treatment or prevention of HIV infection” (Merck Sharp & Dohme LLC, priority 2019, dated 2025)
# Target: T1, human HDAC8 (Homo sapiens, UniProt Q9BY41)
# T1 construct: purchased Enzo Life Sciences BML-SE145-0100
# T1 sequence (Q9BY41 1-377): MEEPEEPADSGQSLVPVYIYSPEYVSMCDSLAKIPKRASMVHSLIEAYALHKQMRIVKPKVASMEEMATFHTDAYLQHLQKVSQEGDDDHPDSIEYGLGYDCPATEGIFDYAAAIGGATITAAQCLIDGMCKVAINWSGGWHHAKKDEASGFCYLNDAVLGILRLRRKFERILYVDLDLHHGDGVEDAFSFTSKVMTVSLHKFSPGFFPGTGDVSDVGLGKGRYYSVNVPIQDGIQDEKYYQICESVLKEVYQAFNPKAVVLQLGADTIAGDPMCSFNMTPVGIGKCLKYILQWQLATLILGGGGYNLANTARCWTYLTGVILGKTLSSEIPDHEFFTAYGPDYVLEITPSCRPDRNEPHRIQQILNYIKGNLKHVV
# Test: Human HDAC enzyme inhibitor Fluor-de-Lys assay, HDAC8
# Format: biochemical
# Details: 1.3 nM enzyme, 200 μM substrate BML-KI178, 3 h pre-incubation, 60 min reaction; read-out: HDAC8_IC50
# Description: Recombinant human HDAC8 (catalog number BML-SE145-0100) and HDAC10 (catalog number BML-SE559-0050) enzymes, HDAC substrates BML-KI104 and BML-KI178, and HDAC developer solutions BML-KI105 and BML-KI176 were purchased from Enzo Life Sciences (Farmingdale, NY). Recombinant human HDAC5 and HDAC11 were purchased from BPS Bioscience (San Diego, CA)(catalog numbers 50045 and 50021). Substrate Boc-Lys(TFA)-AMC was obtained from Bachem (Bupendorf, Switzerland) (catalog number 1-1985). HDAC inhibitor suberoylanilide hydroxamic acid (SAHA) was obtained from Indofine (Hillsborough Township, NJ) and trichostatin A (TSA) was obtained from Sigma-Aldrich (St. Louis, MO). […] HEPES pH 8.0 was obtained from Boston BioProducts (Ashland, MA), Tween-20 from Fisher Scientific (Hampton, NH)(catalog number BP337), TCEP from Calbiochem and 7.5% bovine serum albumin (BSA) from Life Technologies (Carlsbad, CA) (catalog number 15260037). 384-well, black assay plates were obtained from Corning (Corning, NY) (catalog number 3575).
# The histone deacetylase activities of HDAC1, HDAC2, HDAC3, HDAC6, and HDAC8 were measured in modified Fluor-de-Lys assays in 384-well format. In this assay, HDAC enzymes are initially incubated with an ε-acetyl (or -trifluoroacetyl)-L-lysine-containing substrate with a C-terminal amide having aminomethylcoumarin as the amine component. HDACs cleave the ε-acetyl group, rendering the resulting product susceptible to AMC cleavage by trypsin. The released AMC is then detected by its fluorescence.
# The HDAC 1, 2 assays employed buffer A, which contained 20 mM HEPES, pH 8.0, 1 mM MgCl2, 137 mM NaCl, 2.7 mM KCl, 0.05% BSA. The HDAC3/SMRT assay employed buffer B, consisting of 20 mM HEPES, pH 8.0, 1 mM MgCl2, 50 mM NaCl, 2.7 mM KCl, 0.05% BSA, 0.005% Tween 20, and 10 μM IP4. The HDAC6 assay employed buffer C, consisting of 20 mM HEPES, pH 8.0, 1 mM MgCl2, 137 mM NaCl, 2.7 mM KCl, 0.5 mM TCEP (Calbiochem) and 0.05% BSA. The HDAC8 assay employed buffer D, consisting of 20 mM HEPES, pH 8.0, 1 mM MgCl2, 100 mM NaCl, 20 mM KCl, 0.1% n-octyl-β-D-glucoside (Anatrace, Maumee, OH) and 0.05% BSA. All steps were performed at room temperature (23° C.). The assay was performed by pre-incubating serial dilutions of test compounds with the target HDAC prior to initiation with substrate. Each compound was titrated in a 10-point dose response, using a 1:3 fold dilution scheme, with 0.15 ul of solution added by ECHO555 to the plate, followed by the addition of 20 μl of the appropriate HDAC isoform diluted in appropriate assay buffer. […] Final conditions used for each assay were: 1. HDAC 1, 0.3 nM total enzyme, 20 μM substrate BML-K1104; 2. HDAC 2, 1.5 nM total enzyme, 40 μM substrate BML-K1104; 3. HDAC 3/SMRT, 0.3 nM total enzyme, 20 μM substrate BML-K1104; 4. HDAC 6, 1.3 nM total enzyme, 2.5 μM substrate BML-K1104; 5. HDAC 8, 1.3 nM total enzyme, 200 μM substrate BML-K1178; the final high dose of test compound was 30 μM. For potent compounds, 900 nM was used as the final high dose. The reactions were stopped and developed by addition of 30 ul of HDAC developer solution containing a saturating level of HDAC inhibitor as follows: 1.
row,SMILES,IC50 [nM]
1,"N[C@@H](COCCCC(=O)c1ccon1)c1ncc(-c2ccccc2F)[nH]1 [Compound 2, (R)-4-(2-amino-2-(5-(2-fluorophenyl)-1H-imidazol-2-yl)ethoxy)-1-(isoxazol-3-yl)butan-1-one]",> 900
2,"CCC(=O)CCCOC[C@H](NC(=O)c1cncs1)c1ncc(-c2cc3ccccc3nc2OC)[nH]1 [Compound 5, N-{(1R)-1-[5-(2-methoxyquinolin-3-yl)-1H-imidazol-2-yl]-2-[(4-oxohexyl)oxy]ethyl}-1,3-thiazole-5-carboxamide]",2720
3,"CCC(=O)CCCOC[C@H](NC(=O)C12CCN(CC1)CC2)c1ncc(-c2cc3ccccc3nc2OC)[nH]1 [Compound 6, N-{(1R)-1-[5-(2-methoxyquinolin-3-yl)-1H-imidazol-2-yl]-2-[(4-oxohexyl)oxy]ethyl}-1-azabicyclo[2.2.2]octane-4-carboxamide]",> 45000
4,"CCC(=O)CCCOC[C@H](NC(=O)[C@H]1CC12CCN(CC)CC2)c1ncc(-c2cc3ccccc3nc2OC)[nH]1 [Compound 7, (1S)-6-ethyl-N-{(1R)-1-[5-(2-methoxyquinolin-3-yl)-1H-imidazol-2-yl]-2-[(4-oxohexyl)oxy]ethyl}-6-azaspiro[2.5]octane-1-carboxamide]",> 45000
5,"CNC(=O)C(=O)CCCOC[C@H](NC(=O)c1cncs1)c1ncc(-c2cc3ccccc3nc2OC)[nH]1 [Compound 8, N-[(1R)-1-[5-(2-methoxyquinolin-3-yl)-1H-imidazol-2-yl]-2-{[5-(methylamino)-4,5-dioxopentyl]oxy}ethyl]-1,3-thiazole-5-carboxamide]",3860
6,"CNC(=O)C(=O)CCCOC[C@H](NC(=O)C12CCN(CC1)CC2)c1ncc(-c2cc3ccccc3nc2OC)[nH]1 [Compound 9, N-[(1R)-1-[5-(2-methoxyquinolin-3-yl)-1H-imidazol-2-yl]-2-{[5-(methylamino)-4,5-dioxopentyl]oxy}ethyl]-1-azabicyclo[2.2.2]octane-4-carboxamide]",3370
7,"COc1nc2ccccc2cc1-c1cnc([C@H](COCCCC(=O)c2ncco2)NC(=O)c2cncs2)[nH]1 [Compound 10, N-{(1R)-1-[5-(2-methoxyquinolin-3-yl)-1H-imidazol-2-yl]-2-[4-(1,3-oxazol-2-yl)-4-oxobutoxy]ethyl}-1,3-thiazole-5-carboxamide]",1380
8,"COc1nc2ccccc2cc1-c1cnc([C@H](COCCCC(=O)c2ncco2)NC(=O)[C@H]2CC23CCN(C)CC3)[nH]1 [Compound 11, (1S)-N-{(1R)-1-[5-(2-methoxyquinolin-3-yl)-1H-imidazol-2-yl]-2-[4-(1,3-oxazol-2-yl)-4-oxobutoxy]ethyl}-6-methyl-6-azaspiro[2.5]octane-1-carboxamide]",7780
9,"COc1nc2ccccc2cc1-c1cnc([C@H](COCCCC(=O)c2ncco2)NC(=O)C23CCN(CC2)CC3)[nH]1 [Compound 12, N-{(1R)-1-[5-(2-methoxyquinolin-3-yl)-1H-imidazol-2-yl]-2-[4-(1,3-oxazol-2-yl)-4-oxobutoxy]ethyl}-1-azabicyclo[2.2.2]octane-4-carboxamide]",5550
10,"COc1nc2ccccc2cc1-c1cnc([C@H](COCCCC(=O)c2ncco2)NC(=O)CN(C)C)[nH]1 [Compound 13, N-{(1R)-1-[5-(2-methoxyquinolin-3-yl)-1H-imidazol-2-yl]-2-[4-(1,3-oxazol-2-yl)-4-oxobutoxy]ethyl}-N~2~,N~2~- dimethylglycinamide]",17000
11,"COc1nc2ccccc2cc1-c1cnc([C@H](COCCCC(=O)c2ccon2)NC(=O)CN(C)C)[nH]1 [Compound 14, N-{(1R)-2-(4-isoxazol-3-yl-4-oxobutoxy)-1-[5-(2-methoxyquinolin-3-yl)-1H-imidazol-2-yl]ethyl}-N~2~,N~2~- dimethylglycinamide]",1760
12,"CN1CC(C(=O)N[C@@H](COCCCC(=O)c2ccon2)c2ncc(-c3ccccc3F)[nH]2)C1 [Compound 15, N-[(1R)-1-[5-(2-fluorophenyl)-1H-imidazol-2-yl]-2-(4-isoxazol-3-yl-4-oxobutoxy)ethyl]-1-methylazetidine-3-carboxamide]",> 900
13,"CN1CC(C(=O)N[C@@H](COCCCC(=O)c2ccon2)c2[nH]c(-c3ccc(F)cc3)nc2Cl)C1 [Compound 16, N-[(1R)-1-[4-chloro-2-(4-fluorophenyl)-1H-imidazol-5-yl]-2-(4-isoxazol-3-yl-4-oxobutoxy)ethyl]-1-methylazetidine-3-carboxamide]",> 900
14,"CN(C)CC(=O)N[C@@H](COCCCC(=O)c1ccon1)c1[nH]c(-c2ccc(F)cc2)nc1Cl [Compound 17, N-[(1R)-1-[4-chloro-2-(4-fluorophenyl)-1H-imidazol-5-yl]-2-(4-isoxazol-3-yl-4-oxobutoxy)ethyl]-N~2~,N~2~- dimethylglycinamide]",> 900
15,"CN1CCC2(CC1)C[C@@H]2C(=O)N[C@@H](COCCCC(=O)c1ccon1)c1[nH]c(-c2ccc(F)cc2)nc1Cl [Compound 18, (1S)-N-[(1R)-1-[4-chloro-2-(4-fluorophenyl)-1H-imidazol-5-yl]-2-(4-isoxazol-3-yl-4-oxobutoxy)ethyl]-6-methyl-6-azaspiro[2.5]octane-1-carboxamide]",> 900
16,"COc1cc2nc(C)ccc2cc1-c1cnc([C@H](COCCCC(=O)c2cc(C)on2)NC(=O)C2CN(C)C2)[nH]1 [Compound 19, N-{(1R)-1-[5-(7-methoxy-2-methylquinolin-6-yl)-1H-imidazol-2-yl]-2-[4-(5-methylisoxazol-3-yl)-4-oxobutoxy]ethyl}-1-methylazetidine-3-carboxamide]",> 900
17,"COc1cc2nc(C)ccc2cc1-c1cnc([C@H](COCCCC(=O)c2cc(C)on2)NC(=O)[C@H]2CC23CCN(C)CC3)[nH]1 [Compound 20, (1S)-N-{(1R)-1-[5-(7-methoxy-2-methylquinolin-6-yl)-1H-imidazol-2-yl]-2-[4-(5-methylisoxazol-3-yl)-4-oxobutoxy]ethyl}-6-methyl-6-azaspiro[2.5]octane-1-carboxamide]",> 900
18,"Cc1ccc2cc(-c3cnc([C@H](CSCCCC(=O)c4ncco4)NC(=O)[C@H]4CC45CCN(C)CC5)[nH]3)ccc2n1 [Compound 21, (1S)-6-methyl-N-[(1R)-1-[5-(2-methylquinolin-6-yl)-1H-imidazol-2-yl]-2-{[4-(1,3-oxazol-2-yl)-4-oxobutyl]sulfanyl}ethyl]-6-azaspiro[2.5]octane-1-carboxamide]",1050
